Measured values reported in patent US9328369B2, “Process for production of useful substance, and surfactant for use in the process” (priority 2009, dated 2016).

Tested on: Escherichia coli (β)
Assay: Screening of secretion efficiency, TorA expressing strain
Format: cell-based
Conditions: surfactant 1 wt %; 37° C., 1 hour; ELISA, anti-His-tag antibody
From the text: A torA gene of an Escherichia coli strain W3110 was amplified by the PCR method using primers 3 and 4 (Table 4). After being treated with restriction enzymes NdeI and BamHI, a PCR fragment was bound to an NdeI restriction enzyme site and a BamHI restriction enzyme site of a pET-22b plasmid (product of Novagen). Then, the plasmid was transformed into an AG1 (DE3) Escherichia coli strain to form a TorA expressing strain (β). Localization of the expressed TorA in a periplasmic fraction was confirmed by conducting an analysis based on the method disclosed in page 121 of Vol. 353 of METHODS IN ENZYMOLOGY (2002).
A pdxA gene of an Escherichia coli strain W3110 was amplified by the PCR method using primers 5 and 6 (Table 4). After being treated with restriction enzymes NdeI and BamHI, a PCR fragment was bound to an NdeI restriction enzyme site and a BamHI restriction enzyme site of a pET-22b plasmid (product of Novagen). Then, the plasmid was transformed into an AG1 (DE3) Escherichia coli strain to form a PdxA expressing strain (γ). Localization of the expressed PdxA in a cytoplasmic compartment was confirmed by conducting an analysis based on the method disclosed in page 121 of Vol. 353 of METHODS IN ENZYMOLOGY (2002). […]
(4) Then, the solution was allowed to stand at 37° C. for 1 hour. […] Here, the quantification of the recombinant protein in the resulting solution was carried out by ELISA assay with use of an anti-His-tag antibody. The sample prior to the centrifugation in the process (3) was treated with ultrasonic waves (200 W, 10 minutes) and the quantification of the recombinant protein therein was similarly carried out by ELISA assay with use of an anti-His-tag antibody. The ratio of lysed bacteria was obtained with use of Escherichia coli (γ), and the secretion efficiencies of the recombinant proteins of Escherichia coli (α) and (β) were calculated by using the following formula. […]
“Z” represents the ratio of lysed bacteria obtained with use of Escherichia coli (γ), which is determined by the following formula: Z=Z1/Z2. […]

Substance	Secretion efficiency (%) Escherichia coli (β) [%]
Cured palm oil fatty acid amidopropyl dimethyl aminoacetate betaine [A-6]	85.4
Polyoxyethylene(3 mol)tridecyl ether sodium acetate [A-1]	98.2
